{"source": "patent US9439878B2", "about": "“Use of lumefantrine and related compounds in the treatment of cancer” (priority 2010, dated 2016)", "key": {"[1]": {"tested_on": "Ba/F3 cells expressing wild-type BCR-ABL (p210)", "assay": "MTT cell viability assay, Ba/F3 cells expressing wild-type (p210) Bcr-Abl", "format": "cell-based, Murine", "conditions": "for potency relative to chloroquine (cell viability): chloroquine 25 μM control", "description": "(§1) A study conducted through the independent Cancer Therapy & Research Center, Institute for Drug Development at the University of Texas Health Science Center at San Antonio, Tex., evaluated lumefantrine as an autophagy inhibitor (i.e., “Lumefantrine Study”). […] 1; 110(1):313-22. Epub 2007 Mar. 15. PMID: 17363733”. Murine Ba/F3 cells that stably express wild-type BCR-ABL (p210) or the T315I mutated version of BCR-ABL, which confers resistance to imatinib and nilotinib were utilized for this study. Cells were propagated at 37° C. in a humidified atmosphere containing 5% carbon dioxide. Cell viability was determined using the MTT assay. This colorimetric procedure measures conversion of the MTT reagent (a tetrazoleum salt) to formazan by mitochondria. Formazan production was quantified by spectrophotometric measurement at 570 nm and was proportional to viable cell number. Cells were cultured and treated with different concentrations of the agent(s) for 48 hours. Following treatment, 50 μl of MTT was added to each well and allowed to incubate for 1-3 hours at 37° C. Each well was aspirated and 200 μl of DMSO was added to each well to dissolve the formazan. […] Lumefantrine was tested as potential autophagy inhibitor at final concentrations between one to forty micromolar. […] The ER stressor drugs tested and their final concentrations were GleevecTM (imatinib, Novartis, final 350 nM), […] (nilotinib, Novartis, final 35 nM) or ZolinzaTM (suberoylanilide hydroxamic acid, Merck, final 1 μM)."}, "[2]": {"tested_on": "Ba/F3 cells expressing T315I mutated BCR-ABL", "assay": "MTT cell viability assay, Ba/F3 cells expressing mutant Bcr-Abl (T315I)", "format": "cell-based, Murine", "conditions": "for potency relative to chloroquine (cell viability): chloroquine 25 μM control", "description": "as §1"}}, "data": [{"compound": "CCCCN(CCCC)CC(O)c1cc(Cl)cc2c1-c1ccc(Cl)cc1/C2=C\\c1ccc(Cl)cc1", "note": "(racemic) [lumefantrine, 2-(dibutylamino)-1-[(9E)-2,7-dichloro-9-(4-chlorobenzylidene)-9H-fluoren-4-yl]ethanol]", "values": [{"measurement": "potency relative to chloroquine (cell viability)", "setting": "[1]; SAHA experiment, Ba/F3 p210", "result": "equipotent with chloroquine"}, {"measurement": "potency relative to chloroquine (cell viability)", "setting": "[1]; imatinib experiment, Ba/F3 p210", "result": "equipotent with chloroquine"}, {"measurement": "cell viability (MTT, OD 570 nm)", "setting": "[1]; lumefantrine 1-40 micromolar, with and without SAHA 1 μM, 48 hours, Ba/F3 p210 (FIG. 2)", "result": "dose-dependent reductions in the cell viability"}, {"measurement": "potency relative to chloroquine (cell viability)", "setting": "[1]; nilotinib experiment, Ba/F3 p210", "result": "equipotent with chloroquine"}, {"measurement": "enhancement of suberoylanilide hydroxamic acid (SAHA) effect on proliferation/viability", "setting": "[1]; with SAHA 1 μM, 48 hours, Ba/F3 p210", "result": "enhanced the suberoylanilide hydroxamic acid drug response"}, {"measurement": "augmentation of imatinib effects on cell viability", "setting": "[1]; with imatinib 350 nM, 48 hours, Ba/F3 p210 (FIG. 4)", "result": "augments the imatinib effects"}, {"measurement": "augmentation of nolotinb effects on cell viability", "setting": "[1]; with nilotinib 35 nM, 48 hours, Ba/F3 p210 (FIG. 6)", "result": "augments the nolotinb effects"}, {"measurement": "potency relative to chloroquine (cell viability)", "setting": "[2]; SAHA experiment, Ba/F3 T315I", "result": "equipotent with chloroquine"}, {"measurement": "potency relative to chloroquine (cell viability)", "setting": "[2]; imatinib experiment, Ba/F3 T315I", "result": "equipotent with chloroquine"}, {"measurement": "cell viability (MTT, OD 570 nm)", "setting": "[2]; lumefantrine 1-40 micromolar, with and without SAHA 1 μM, 48 hours, Ba/F3 T315I (FIG. 3)", "result": "dose-dependent reductions in the cell viability"}, {"measurement": "potency relative to chloroquine (cell viability)", "setting": "[2]; nilotinib experiment, Ba/F3 T315I", "result": "equipotent with chloroquine"}, {"measurement": "enhancement of suberoylanilide hydroxamic acid (SAHA) effect on proliferation/viability", "setting": "[2]; with SAHA 1 μM, 48 hours, Ba/F3 T315I", "result": "enhanced the suberoylanilide hydroxamic acid drug response"}, {"measurement": "augmentation of imatinib effects on cell viability", "setting": "[2]; with imatinib 350 nM, 48 hours, Ba/F3 T315I (FIG. 5)", "result": "the only effects on viability are those generated by lumefantrine alone"}, {"measurement": "augmentation of nolotinb effects on cell viability", "setting": "[2]; with nilotinib 35 nM, 48 hours, Ba/F3 T315I (FIG. 7)", "result": "the only effects on viability are those generated by lumefantrine alone"}]}]}
